{"source": "patent US7264925B2", "about": "“Method for analysis of oligonucleotide analogs” (AVI BioPharma, Inc., priority 2000, dated 2007)", "experiment": "Quantitation of PMO in plasma of cynomolgus monkeys following i.v. injection (anion exchange HPLC of the duplex with 5'-fluorescein labeled DNA)", "type": "in vivo", "protocol": "• HPLC conditions: • Column: Dionex DNA Pac™ PA-100 (250×4 mm, 15μ particle size) • Mobile Phases: A: 0.025 M Tris (pH 9); B: 0.025 M Tris (pH 9)/1 M NaCl • Gradient: A:B:C 90/10 @ 0 min to 55/45 @ 20 min • Flow Rate: 1.5 mL/min • Wavelength: 494 nm excitation; 518 detection • Temperature: 25° C.\nCynomolgus monkeys were injected i.v. with the analyte PMO, and blood samples were taken at various time intervals, as shown in Table 2. In a typical analysis, 200 μL of plasma was combined with a known amount (e.g. 500 ng) of internal standard (FIG. 11) in 10 μL of 0.025 M Tris buffer, pH 8-9. Methanol (200.0 μL) was added, and the sample was mixed using a vortex mixer. The precipitate was removed with the aid of high speed centrifugation. The supernatant was removed and the pellet washed with 100 μL Tris buffer; the wash was added to the supernatant. The mixture was heated at 70° C. for a period of 10 minutes, and the sample was once again subjected to high speed centrifugation. The supernatant was transferred and lyophilized to dryness. The dry material was reconstituted with a 100.0 μL aliquot of DNA (5′-fluorescein labeled) in 0.025 M Tris (pH 8-9) and transferred to an autosampler vial, and the entire sample was injected onto the HPLC column and analyzed.\nA calibration was performed by analysis of plasma standards containing from 250 to 20,000 ng of AVI-4126. The data were plotted as the ratio of analyte to internal standard signal intensities versus the ratio of analyte to internal standard concentrations.\nThe level detected in this assay was 10.0 ng analyte, which corresponded to 50 ng/mL. The sensitivity of this method thus far exceeds the detection and quantitation limits of UV based methods.", "note": "Several values for one entry are separate records, joined by “and”; a condition that tells them apart may be missing. Equal values may be shown once.", "data": [{"substance": "PMO: PMO (phosphorodiamidate morpholino oligomer) having the sequence ACGTTGAGGGGCATCGTCGC (SEQ ID NO: 1), antisense to human c-myc (antisense ACGTTGAGGGGCATCGTCGC; all phosphorodiamidate morpholino (PMO))", "values": [{"measurement": "level detected in representative assay (FIG. 12), amount of analyte", "setting": "200 μL plasma sample, representative assay, time point not stated", "result": 10.0, "unit": "ng"}, {"measurement": "level detected in representative assay (FIG. 12), plasma concentration", "setting": "corresponds to 10.0 ng analyte in plasma sample, time point not stated", "result": 50, "unit": "ng/mL"}, {"measurement": "Quantitation of PMO in plasma, 10 min", "setting": "cynomolgus monkey plasma, i.v. injection, 10 min, one value per monkey ID", "result": "92.505 µg/mL and 105.37 µg/mL and 105.685 µg/mL"}, {"measurement": "Quantitation of PMO in plasma, 2 h", "setting": "cynomolgus monkey plasma, i.v. injection, 2 h, one value per monkey ID", "result": "49.895 µg/mL and 68.025 µg/mL and 49.755 µg/mL"}, {"measurement": "Quantitation of PMO in plasma, 6 hr", "setting": "cynomolgus monkey plasma, i.v. injection, 6 hr, one value per monkey ID", "result": "29.81 µg/mL and 45.33 µg/mL and 32.015 µg/mL"}, {"measurement": "Quantitation of PMO in plasma, 24 hr", "setting": "cynomolgus monkey plasma, i.v. injection, 24 hr, one value per monkey ID", "result": "17.575 µg/mL and 14.895 µg/mL and 12.645 µg/mL"}]}]}
